Data from US20100143440A1, “UL97 INHIBITORS FOR TREATMENT OF PROLIFERATIVE DISORDERS” (The UAB Research Foundation, priority 2007, published 2010).
Like-named read-outs stand apart in the source and are kept apart here.

How the values were obtained:
HCMV UL97 kinase = target: T1, HCMV UL97 kinase (Human cytomegalovirus, UniProt P16788); experiment: Surrogate assay: UL97 kinase dependent inhibition of pp65-GFP nuclear aggregation; format: cell-based
T1 construct: expressed in transfected cells; host or cells: COS7 cells (transient co-transfection)

pUL97 = target: T2, pUL97 (Human cytomegalovirus, UniProt P16788); experiment: Number of PML bodies in COS7 cells expressing pUL97; format: cell-based, HCMV; details: FIG. 3F
T2 construct: expressed in transfected cells; host or cells: COS7 cells (transient co-transfection)
Experimental: Indirect immunofluorescence microscopy. Cells expressing proteins from transfected plasmids were visualized by methods published previously (Prichard et al., J. Virol. 79:15494-502 (2005)). Briefly, monolayers of HFF cells were grown on 12 mm diameter coverslips in 24-well plates. Transfected cells were fixed for 15 minutes with freshly prepared 2% formaldehyde in phosphate buffered saline (PBS), washed two times with PBS, and membranes were permeabilized with 0.2% Triton X-100 in PBS for 15 minutes. Monoclonal antibody to the V5 epitope tag was purchased from Invitrogen (Carlsbad, Calif.). Monoclonal antibodies to IE1 (63-27) and ppUL44 (28-21) were generously provided by Bill Britt and were used as culture supernatants with goat anti-mouse secondary antibodies conjugated to FITC or Texas Red (Southern Biotechnology, Birmingham, Ala.).
PML bodies are affected by the kinase. Nuclear aggresomes form in a dynamic microtubule dependent process that initiates with fusion of small aggregations located at or near PML bodies. To determine the effect of pUL97 on these structures, this and other proteins were expressed in COST cells and visualized PML bodies with an antibody to SP100, which is a marker of these domains. […] Their number was also unaffected by the expression of pp71, however it colocalized with these structures and is consistent with previous reports. […]

hyperphosphorylated Rb = experiment: Western blot of Rb and p53 in HCMV infected HFF cells; format: cell-based, human
Experimental: Polyacrylamide gels and western blotting. HFF cells were infected at a multiplicity of infection of 2 PFU/cell and at 24 and 72 hours following infection they were disrupted in 2× Lamelli buffer (Sigma-Aldrich, St. Louis, Mo.) and separated on 10%, 7.5%, or 5% polyacrylamide gels depending on the size of the protein to be resolved (BioRad, Hercules, Calif.). Separated proteins were transferred to PVDF membranes (Roche Applied Science, Indianapolis, Ind.) in a buffer containing 28 mM Tris, 39 mM glycine, 0.0375% SDS and 20% methanol in a semi dry transfer cell (BioRad, Hercules, Calif.). Membranes were blocked in 1% blocking buffer (Roche Applied Science, Indianapolis, Ind.), incubated with primary antibodies overnight at 4° C. and washed extensively with PBS supplemented with 0.02% tween 20. A secondary antibody conjugated to alkaline phosphatase (Southern Biotechnology Associates, Birmingham, Ala.) and CDP* (Roche Applied Science, Indianapolis, Ind.) were used to detect the bound primary antibody. Monoclonal antibodies used in these studies were directed against PML (H-238) (Santa Cruz Biotechnology, Santa Cruz, Calif.), DAXX (Upstate Cell Signaling Solutions, Tamecula, Calif.), p53, retinoblastoma, β-tubulin, CREB binding protein (CBP) (Chemicon International, Tamecula, Calif.), and both V5 and Xpress (Invitrogen, Carlsbad, Calif.).
UL97 kinase activity is required for the hyperphosphorylation of Rb. […] Proteins in this complex were examined by Western blots using samples derived from HFF cells that were uninfected, infected with AD169 a recombinant virus (RCΔA97) containing a large deletion in UL97 at a multiplicity of infection of 3 PFU/cell. Some of the infections were conducted in the presence of MBV to confirm that the observed changes were due to a deficiency of its kinase activity. […] In cells infected with the wt virus, increases in levels of p53 were observed (FIG. 4 lanes 9-12), but this increase was unaffected by the deletion of the UL97 open reading frame or treatment with maribavir. Also consistent with this previous report was an increase of hyperphosphorylated Rb at both 24 and 72 hours following infection (FIG. 4, lanes 3, 9). […] A previous report has shown that pp71 directs the proteasome dependent degradation of hypophosphorylated Rb, however observations presented here are distinct in that the hyperphosphorylation and stabilization of this form of Rb is inefficient in the absence UL97 kinase activity.

HHV-6 = details: Williams-Aziz et al. 2005; cited from earlier work
UL97 kinase = target: T3, UL97 kinase (Human cytomegalovirus, UniProt P16788); experiment: UL97 kinase inhibition of pp71 aggregation in cotransfected COS7 cells; format: cell-based, HCMV
T3 construct: expressed in transfected cells; host or cells: COS7 cells (transient co-transfection)

[1] = target: T4, HHV-6B U69 protein kinase (Human herpesvirus 6B, UniProt P52446); experiment: Surrogate assay: U69 kinase dependent inhibition of pp65-GFP nuclear aggregation; format: cell-based; details: 15 μM MBV, FIG. 8; listed as MBV
T4 construct: expressed in transfected cells
Source text: This assay is similar to that reported previously for UL97 (Prichard, M. N., et al., 2005. Human cytomegalovirus UL97 Kinase is required for the normal intranuclear distribution of pp65 and virion morphogenesis. J Virol 79:15494-502). […] Inhibition of aggregation was kinase dependent since the U69B K219M mutation, which eliminates an essential lysine, is incapable of inhibiting aggregation.

GS strain of HHV-6A = experiment: Efficacy against HHV-6A in HSB-2 cells with reduced serum; format: cell-based
Experimental: The activity of MBV was evaluated against the GS strain of HHV-6A in HSB-2 cells with reduced serum to slow the growth of lymphocytes.

CC(C)Nc1nc2cc(Cl)c(Cl)cc2n1[C@H]1O[C@@H](CO)[C@H](O)[C@@H]1O [maribavir]
Effect on ability of UL97 to inhibit pp65-GFP aggregation (HCMV UL97 kinase; 15 μM MBV, FIG. 8, listed as MBV): reduces the ability of UL97 and U69 to inhibit aggregation
Effect on inhibition of pp65 aggregate formation by the kinase (HCMV UL97 kinase; COS7 cells co-expressing pp65-GFP and UL97): antagonized
Effect on pUL97 reduction of the number of PML bodies (pUL97): neither the K355M mutant, or pUL97 in the presence of maribavir could affect their numbers
Levels of hyperphosphorylated Rb (hyperphosphorylated Rb; HFF cells infected with UL97 deletion virus RCΔ97): relatively unaffected
Increase in levels of p53 (hyperphosphorylated Rb; HFF cells infected with wt virus): unaffected
Increase of hyperphosphorylated Rb (hyperphosphorylated Rb; HFF cells infected with wt virus AD169, 24 hours post infection): did not occur
Levels of hyperphosphorylated Rb (hyperphosphorylated Rb; HFF cells infected with wt virus AD169, 72 hours after infection): significantly reduced
Hyperphosphorylated forms of Rb (hyperphosphorylated Rb; infected cells, 24 and 72 hours, FIG. 4 legend): reduced
Inhibition of HHV-6 replication (HHV-6): poor inhibitor
Effect on kinase inhibition of pp71 aggregation (UL97 kinase): unable to inhibit the aggregation of pp71 in the presence of MBV
Effect on ability of U69 to inhibit pp65-GFP aggregation [1]: reduces the ability of UL97 and U69 to inhibit aggregation
EC50 (GS strain of HHV-6A; HSB2, GS strain of HHV-6A, HSB-2 cells, reduced serum, read-out: EC50 values under conditions of reduced serum): 9 to 30 µM
EC50 (GS strain of HHV-6A; HSB2, HHV-6A in HSB-2 cells, 2% FBS, read-out: EC50): 30 µM
EC50 (GS strain of HHV-6A; HSB2, HHV-6A in HSB-2 cells, 5% FBS, read-out: EC50): 9 µM
EC50 (GS strain of HHV-6A; HSB2, HHV-6A in HSB-2 cells, 10% FBS, read-out: EC50): > 50 µM
